Measured values as given in publication PMC6453136 (Cellular signalling, 2018).
pEC50: −log10 of the molar value. Each block holds one compound with its values, some of them ahead of it.

Experiments:
[1] = target: T1, cAR1 (Dictyostelium discoideum, UniProt P13773); assay: cell-based
T1 sequence (P13773 1-392): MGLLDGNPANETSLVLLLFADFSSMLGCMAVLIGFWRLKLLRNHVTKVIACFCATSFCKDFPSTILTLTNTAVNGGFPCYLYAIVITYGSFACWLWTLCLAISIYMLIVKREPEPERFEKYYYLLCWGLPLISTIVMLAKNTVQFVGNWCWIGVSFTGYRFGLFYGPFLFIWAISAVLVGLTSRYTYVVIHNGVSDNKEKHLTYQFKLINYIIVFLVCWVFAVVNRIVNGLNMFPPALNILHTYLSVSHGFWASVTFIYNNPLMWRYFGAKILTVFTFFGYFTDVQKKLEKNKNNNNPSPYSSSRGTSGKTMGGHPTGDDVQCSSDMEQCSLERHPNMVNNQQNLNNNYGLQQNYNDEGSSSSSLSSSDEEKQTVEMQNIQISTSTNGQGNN

[2] = test system: cAMP-induced Gα2βγ subunit dissociation; assay: BRET^2 assay after drug pretreatment; format: cell-based, Dictyostelium; details: for effect on interaction of Gα2 with βγ in resting cells (basal BRET^2 signal): 5 μM LatA or 50 μM Benomyl for 15 min
[3] = test system: 5.5 h-differentiated wild-type cells; assay: DIC and fluorescence confocal imaging of drug-treated cells; format: cell-based, Dictyostelium; details: 5 μM LatA or 50 μM Benomyl for 15 min; Lifeact-GFP / tubulin-GFP reporters
[4] = target: T1, cAR1
[5] = test system: cAMP binding sites; details: 10 mM caffeine, whole cells; cited from earlier work

Structure (SMILES): Nc1ncnc2c1ncn2[C@H]1C[C@H](O)[C@@H](COP(=O)(O)O)O1 [2’-dcAMP, 2’-deoxyadenosine-5’-monophosphate]
pEC50 [1]: ~7.77

Structure (SMILES): CCCCNC(=O)n1c(NC(=O)OC)nc2ccccc21 [Benomyl]
effect on interaction of Gα2 with βγ in resting cells (basal BRET^2 signal) [2]: did not affect
effect on cell morphology [3]: loss of morphological cell polarity

Structure (SMILES): C/C1=C/C(=O)O[C@@H]2C[C@@H](CC[C@H](C)/C=C\C=C\CC1)O[C@@](O)([C@@H]1CSC(=O)N1)C2 [LatA, Latrunculin A]
effect on interaction of Gα2 with βγ in resting cells (basal BRET^2 signal) [2]: did not affect
effect on cell morphology [3]: loss of morphological cell polarity

time to steady state of BRET^2 loss after stimulation ([4]; 10 μM cAMP): approximately 20 s
decrease in total BRET^2 signal ([4]; 10 μM cAMP, Gα2GFP^2/Rluc2Gβ/gα2^− cells): 30–40
total BRET^2 signal after stimulation ([4]; 10 μM cAMP, Gα2GFP^2/Rluc2Gβ/gα2^− cells, 63 mBU before stimulation): 36 mBU
cAMP concentration inducing the full G protein dissociation response ([4]; Gα2GFP^2/Rluc2Gβ/gα2^− cells): 500 nM
G protein subunit dissociation in cells lacking only cAR3 (extent and potency) ([4]; carC^− cells): comparable to that in wild-type cells
Structure (SMILES): Nc1ncnc2c1ncn2[C@@H]1O[C@@H]2COP(=O)(O)O[C@H]2[C@H]1O [cAMP, cyclic adenosine monophosphate]
G protein subunit dissociation in cells lacking cAR1 ([4]; 10 μM cAMP, carA^− and carA^−carC^− cells, undifferentiated and 5.5 h-differentiated): fails to induce considerable G protein subunit dissociation

Structure (SMILES): Cn1c(=O)c2c(ncn2C)n(C)c1=O [caffeine]
effect on cAMP binding sites [5]: conversion of most binding sites to the low affinity conformation
effect of caffeine on potency of cAMP-induced Gα2βγ subunit dissociation ([2]; 5 mM caffeine, in parallel to untreated cells): significantly increased potency
